Results taken from EP2112152A1, “Dihydropteridinones as Plk Inhibitors” (GPC Biotech AG, priority 2008, dated 2009).
Where two headings read alike, the source gives them in different places.

Assays:
[1] = system: Abl, Akt1, Aur A, c-Kit, c-Raf, Cdk1/CycB, Chk1, FGFR3, Flt3, Fyn, IGF1-R, INSR, Lyn, MAPK-ERK1, p38a, PAK4, PKCalpha, Ret, ROCK2, RSK 1, c-Src, TIE2, and …; assay: Selectivity panel (Proteros), 23 other kinases; format: biochemical; conditions: tested at 1 mM in triplicates; each of the 23 other kinases
Procedure: Selected compound of the present invention were tested in a standard selectivity panel including Plk1 and 23 other kinases (Proteros biostructures GmbH, Martinsried/Munich, Germany), under conditions of non-disclosure, non-dissemination and non-use.
In brief, compounds 1, 13, 14, and 25 (see Table 1) were tested at 1 mM in triplicates against Plk1 as well as against Abl, Akt1, Aur A, c-Kit, c-Raf, Cdk1/CycB, Chk1, FGFR3, Flt3, Fyn, IGF1-R, INSR, Lyn, MAPK-ERK1, p38a, PAK4, PKCalpha, Ret, ROCK2, RSK 1, c-Src, TIE2, and VEGF-R2.

HT-29 = assay: SRB cell proliferation assay, HT-29; format: cell-based; conditions: Homo sapiens
How it was run: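 Cells plated 24 h before compound, then exposed 72 h over a concentration range. TCA-fixed, sulforhodamine B-stained, bound dye read at OD520; IC50 derived from % inhibition of proliferation versus DMSO-treated cells.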

A-431 = assay: SRB cell proliferation assay, A-431; format: cell-based; conditions: Homo sapiens, 18-Cell Line Panel, skin
Procedure: (§1) Cells were exposed to the test compounds at various concentrations appropriate to determine an IC50 for 72 hours. Cell proliferation was measured using the SRB assay according to Shekan et al (J Natl Cancer Inst (1990) 82, 1107-112) in order to estimate the IC50 values shown in Table 3. Briefly, cells were plated in 96 well dishes 24 hours prior to compound addition at the densities specified in Table 5.1. The assay was terminated with the addition of cold TCA to a final concentration of 10% after growth medium has been removed and the plates were incubated over night at 4°C. The plates were then washed 5 times with water and 100µl of a Sulforhodamine B solution (4%) was added to each well. The plates were then incubated for 10 minutes at room temperature before removal of unbound dye by washing with 1% acetic acid. The bound dye was solubilised with 10 mM Trizma base and the absorbance read at OD520.
(§2) Table 8.1: 18-Cell Line Panel

DU 145 = assay: SRB cell proliferation assay, DU 145; format: cell-based; conditions: Homo sapiens, 18-Cell Line Panel, prostate, read-out: IC50 DU145
Procedure: as §1, §2

MDA-MB-468 = assay: SRB cell proliferation assay, MDA-MB-468; format: cell-based; conditions: Homo sapiens, MDA-MB-468; 18-Cell Line Panel; breast
Procedure: as §1, §2

OVCAR-3 = assay: SRB cell proliferation assay, OVCAR-3; format: cell-based; conditions: Homo sapiens, 18-Cell Line Panel, ovary
Procedure: as §1, §2

PC-3 = assay: SRB cell proliferation assay, PC-3; format: cell-based; conditions: Homo sapiens, 18-Cell Line Panel, prostate
Procedure: as §1, §2

HeLa = assay: SRB cell proliferation assay, HeLa; format: cell-based; conditions: Homo sapiens, 18-Cell Line Panel, cervix
Procedure: as §1, §2

MDA-MB-231 = assay: SRB cell proliferation assay, MDA-MB-231; format: cell-based; conditions: Homo sapiens, 18-Cell Line Panel, breast
Procedure: as §1, §2

Plk1 = Plk1 (Homo sapiens, UniProt P53350); assay: Cellular Plk1 kinase activity: nucleophosmin (B23) Ser4 phosphorylation in HCT116 cells (MSD electrochemiluminescence); format: cell-based; design: host or cells: HCT116; conditions: 100 ng/ml nocodazole, 4 hours after compound addition, read-out: Biochemical IC50 Nucleophosmin assay
How it was run: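 HCT116 cells arrested with 100 ng/ml nocodazole for 20 h, then compound for 4 h before lysis. Nucleophosmin Ser4 phosphorylation quantified by MSD electrochemiluminescence with cross-reactive anti-phospho-Mek1/2 antibody; % inhibition relative to cells without nocodazole, IC50 derived.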

[2] = HT-29, 18-Cell Line Panel, colon, read-out: IC50 HT-29
[3] = HT-29, 72 h, 72 hours, SRB assay, read-out: CELLULAR IC50 HT-29

Chain of Plk1 (P53350 whole entry, species assumed): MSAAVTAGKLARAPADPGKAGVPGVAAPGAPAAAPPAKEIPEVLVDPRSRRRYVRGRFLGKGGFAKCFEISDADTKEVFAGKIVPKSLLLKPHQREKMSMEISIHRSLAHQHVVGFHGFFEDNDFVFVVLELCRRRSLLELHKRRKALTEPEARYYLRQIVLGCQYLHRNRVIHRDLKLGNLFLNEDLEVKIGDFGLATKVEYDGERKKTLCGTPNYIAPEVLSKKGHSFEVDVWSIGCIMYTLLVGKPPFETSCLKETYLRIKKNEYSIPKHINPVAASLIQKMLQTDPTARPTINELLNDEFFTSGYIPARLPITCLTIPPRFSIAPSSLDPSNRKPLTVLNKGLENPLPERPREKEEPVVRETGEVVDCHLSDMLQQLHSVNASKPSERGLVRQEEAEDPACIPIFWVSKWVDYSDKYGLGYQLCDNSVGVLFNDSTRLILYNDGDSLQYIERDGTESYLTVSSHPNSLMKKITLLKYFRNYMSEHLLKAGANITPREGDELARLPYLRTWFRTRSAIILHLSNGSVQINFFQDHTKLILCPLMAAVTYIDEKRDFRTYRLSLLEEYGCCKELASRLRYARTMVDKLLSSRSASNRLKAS

Compound | all other kinases were inhibited [1] | IC50 (HT-29; [2]) [µM] | IC50 (HT-29; [3]) [µM] | IC50 (A-431) [µM] | IC50 (DU 145) [µM] | IC50 (MDA-MB-468) [µM] | IC50 (OVCAR-3) [µM] | IC50 (PC-3) [µM] | IC50 (HeLa) [µM] | IC50 (MDA-MB-231) [µM] | IC50 (Plk1) [µM]
CCC1C(=O)N(C)c2cnc(Nc3ccc(C(=O)NC4CCN(C)CC4)cc3OC)nc2N1N(C)C (racemic) [Compound 1, 4-(8-Dimethylamino-7-ethyl-5-methyl-6-oxo-5,6,7,8-tetrahydro-pteridin-2-ylamino)-3-methoxy-N-(1-methyl-piperidin-4-yl)-benzamide] | less than 10% | < 1 | < 1 | < 1 | < 1 | < 1 | < 1 | < 1 | < 1 | > 1 | < 0.1
CCC1C(=O)N(C)c2cnc(Nc3ccc(C(=O)N[C@H]4CC[C@H](N5CCN(CC6CC6)CC5)CC4)cc3OC)nc2N1N(C)C (relative stereo) [Compound 13, N-[trans-4-(4-Cyclopropylmethyl-piperazin-1-yl)-cyclohexyl]-4-(8-dimethylamino-7-ethyl-5-methyl-6-oxo-5,6,7,8-tetrahydro-pteridin-2-ylamino)-3-methoxy-benzamide] | less than 10% | < 1 | < 1 | < 1 | < 1 | > 1 | < 1 | < 1 | < 1 | < 1 | < 0.1
